Experimental data reported in article PMC12118597 (Science Advances, 2025).
Several values for one entry are separate records, joined by “and”; a condition that tells them apart may be missing. Equal values may be shown once. Read-outs that look alike come from different tables or passages of the source.

Experiments:
[1] = target: T1, SARS-CoV-2 NSP3 macrodomain (Mac1) (Severe acute respiratory syndrome coronavirus 2, UniProt P0DTD1); test: biochemical; type: binding
[2] = target: T1, SARS-CoV-2 NSP3 macrodomain (Mac1); type: binding; details: for 2*(1-BDC) (%): occupancy estimate from PanDDA; for binding by crystal soaking: repeated attempts, result in words
[3] = HTRF binding curve, SARS-CoV-2 Mac1
[4] = SARS CoV-2 macrodomain HTRF assay
[5] = SARS CoV-2 macrodomain HTRF assay, dose-response
[6] = SARS CoV-2 macrodomain HTRF assay, single dose concentration 200 μM, read-out: Average % competition
[7] = compound at 200 μM, mean of three to four technical replicates, read-out: % competition at 200 μM (preliminary HTRF screen)
[8] = read-out: IC50 (confirmatory HTRF dose-response screen)
[9] = crystal soak 10 mM, DMSO background map
[10] = ligand modeling, Mac1 crystal soak
[11] = SARS CoV-2 macrodomain HTRF assay, dose-response, read-out: IC50
[12] = stereoisomer(s)/conformations of the soaked ligand modeled in the Mac1 crystal structure
[13] = stereoisomer(s) modeled as bound, residues 201/202/203
[14] = Single dose, concentration 200 μM
[15] = single dose concentration 200 μM (TS-FrankenROCS series)

CC(C)(O)[C@@H]1CCCN1c1ncnc2[nH]ccc12 [AVI-1445, (S)-2-(1-(7H-pyrrolo[2,3-d]pyrimidin-4-yl)pyrrolidin-2-yl)propan-2-ol]
Hill slope [1, 3]: 1.1
Ki [1, 4]: 100 µM
Ligand efficiency (binding enery per heavy atom) [1, 4]: 0.31
Hill slope [1, 5]: 1.6
inhibition at 200 µM [1, 6]: 75%
inhibition at 200 µM [1, 7]: 75%
IC50 [1, 8]: 110 µM
Occupancy difference (refined_occupancy - 2*(1-BDC)) [2]: 0
1-BDC ([2]; PanDDA background density correction factor): 0.12
PanDDA run, overall: Hit ([2]; crystal soak 10 mM, P43 crystal form): TRUE
PanDDA run, DMSO background map: 1-BDC [2, 9]: 0.12
PanDDA run, DMSO background map: Hit [2, 9]: TRUE
PanDDA run, TFA/DMSO background map: 1-BDC ([2]; crystal soak 10 mM): 0.12
PanDDA run, TFA/DMSO background map: Hit ([2]; crystal soak 10 mM): TRUE
Total number of conformations ([2]; ligand conformations modeled in the crystal structure): 1
Number of isomers bound [2, 10]: 1
X-ray crystal structure ([2]; ligand-bound crystal structure obtained (TRUE)): TRUE
2*(1-BDC) (%) [2]: 24%
Refined ligand occupancy (%) ([2]; refined crystallographic occupancy): 24%
Binding site ([2]; site occupied in X-ray crystal structure): Adenosine

O[C@H]1CC[C@H]2CCN(c3ncnc4[nH]ccc34)[C@H]21 [AVI-5997]
Ki [1, 4]: 34 µM
Ligand efficiency (binding enery per heavy atom) [1, 4]: 0.34
IC50 [1, 11]: 37 µM
Isomers modeled [2, 12]: SSR

OCC1CC2(CCCCC2)CN1c1ncnc2[nH]ccc12 (stereo not drawn) [AVI-3727]
inhibition at 200 µM [1, 6]: 67%
inhibition at 200 µM [1, 7]: 67%
PanDDA run, TFA/DMSO background map: 1-BDC ([2]; crystal soak 10 mM): 0.25
PanDDA run, TFA/DMSO background map: Hit ([2]; crystal soak 10 mM): TRUE
Number of isomers bound [2, 10]: 1

Cc1c[nH]c2ncnc(NCC3(O)CCCC3)c12 [AVI-3760, 1-(((5-methyl-7H-pyrrolo[2,3-d]pyrimidin-4-yl)amino)methyl)cyclopentan-1-ol]
Hill slope [1, 3]: 1.1
Ki [1, 4]: 18 µM
Ligand efficiency (binding enery per heavy atom) [1, 4]: 0.36
Hill slope [1, 5]: 1.1
IC50 [1, 11]: 19 µM
1-BDC ([2]; PanDDA background density correction, 1-BDC): 0.16
X-ray crystal structure ([2]; TRUE = crystal structure with ligand obtained): TRUE
Hit (PanDDA run, DMSO background map) [2, 9]: TRUE
1-BDC (PanDDA run, DMSO background map) ([2]; crystal soak 10 mM, DMSO background map, event 1): 0.19 and 0.16
Hit (PanDDA run, overall) ([2]; crystal soak, 10 mM soak concentration, P43 crystal form): TRUE
Refined ligand occupancy (%) ([2]; crystallographic refinement): 50%
2*(1-BDC) (%) [2]: 32%
Binding site ([2]; site of ligand in X-ray crystal structure): Adenosine

CC1(C)C[C@@H](CO)N(c2ncnc3[nH]ccc23)C1.O=C(O)C(F)(F)F [AVI-3704]
Ki [1, 4]: 27 µM
Ligand efficiency (binding enery per heavy atom) [1, 4]: 0.35
IC50 [1, 11]: 29 µM
Number of isomers bound [2, 10]: 1

OCC1CC2(CCC2)CN1c1ncnc2[nH]ccc12 (stereo not drawn) [AVI-3728]
inhibition at 200 µM [1, 6]: 79%
inhibition at 200 µM [1, 7]: 79%
PanDDA run, TFA/DMSO background map: 1-BDC ([2]; crystal soak 10 mM): 0.26
PanDDA run, TFA/DMSO background map: Hit ([2]; crystal soak 10 mM): TRUE
Number of isomers bound [2, 10]: 1
Isomers modeled [2, 13]: S,S

O=C(O)C1CCCN1S(=O)(=O)c1cccc2nsnc12 (stereo not drawn) [AVI-2]
inhibition at 200 µM [1, 7]: 23%
Number of isomers bound [2, 10]: 1

c1ccc(-n2nnnc2CSc2nnc(NC3CC3)s2)cc1 [AVI-286]
Number of isomers bound [2]: 1

CC1(C)CCN(c2ncnc3[nH]ccc23)C(CO)C1 (stereo not drawn) [AVI-5994]
Ki [1, 4]: 63 µM
Ligand efficiency (binding enery per heavy atom) [1, 4]: 0.31
IC50 [1, 11]: 68 µM
Isomers modeled [2, 12]: S,S

CN1CCN(c2ncnc3[nH]ccc23)C(CO)C1 (stereo not drawn) [AVI-3721]
inhibition at 200 µM [1, 6]: 11%
inhibition at 200 µM [1, 7]: 11%
Number of isomers bound [2, 10]: 1
Isomers modeled [2, 13]: R,R

OCC1CC2(CCCC2)CN1c1ncnc2[nH]ccc12 (stereo not drawn) [AVI-3708]
Ki [1, 4]: 25 µM
Ligand efficiency (binding enery per heavy atom) [1, 4]: 0.32
IC50 [1, 11]: 27 µM
Number of isomers bound [2, 10]: 1

OCCC(CO)Nc1ncnc2[nH]ccc12 (stereo not drawn) [AVI-3734]
Ki [1, 4]: 48 µM
Ligand efficiency (binding enery per heavy atom) [1, 4]: 0.37
IC50 [1, 8]: 52 µM
Number of isomers bound [2, 10]: 1

OCC1CC2(CCOCC2)CN1c1ncnc2[nH]ccc12 (stereo not drawn) [AVI-3707]
inhibition at 200 µM [1, 6]: 39%
inhibition at 200 µM [1, 7]: 39%
PanDDA run, TFA/DMSO background map: 1-BDC ([2]; crystal soak 10 mM): 0.15
PanDDA run, TFA/DMSO background map: Hit ([2]; crystal soak 10 mM): TRUE
Number of isomers bound [2, 10]: 1

C[C@@H]1CCN(c2ncnc3[nH]ccc23)[C@H](CO)C1 [AVI-4064]
Ki [1, 4]: 93 µM
Ligand efficiency (binding enery per heavy atom) [1, 4]: 0.31
IC50 [1, 11]: 100 µM
Isomers modeled [2, 12]: RS,SR

CCC1(O)CCN(c2ncnc3[nH]ccc23)C1 (stereo not drawn) [AVI-612]
Average % competition ([1]; SARS CoV-2 macrodomain HTRF assay, single dose concentration 200 μM): 22%
inhibition at 200 µM [1, 7]: 22%
Number of isomers bound [2, 10]: 1

CC(c1ccccc1)C(CO)Nc1ncnc2[nH]ccc12 (stereo not drawn) [AVI-3669]
Ligand efficiency ([1]; Binding energy per heavy atom): 0.33
fold more potent / increased binding affinity than AVI-313 parent ([1]; HTRF IC50 compared with AVI-313): > 10 fold
Ki [1, 4]: 8.1 µM
Ligand efficiency (binding enery per heavy atom) [1, 4]: 0.33
IC50 [1, 8]: 8.7 µM
PanDDA run, TFA/DMSO background map: 1-BDC ([2]; crystal soak 10 mM): 0.09
PanDDA run, TFA/DMSO background map: Hit ([2]; crystal soak 10 mM): TRUE
Number of isomers bound [2, 10]: 1

CCC(Nc1ncnc2[nH]ccc12)C(C)O (stereo not drawn) [AVI-3635]
Average % competition [1, 14]: 54%
inhibition at 200 µM [1, 7]: 54%
PanDDA run, TFA/DMSO background map: 1-BDC ([2]; crystal soak 10 mM): 0.11 and 0.08
PanDDA run, TFA/DMSO background map: Hit ([2]; crystal soak 10 mM): TRUE
Number of isomers bound [2, 10]: 1

OCC(Cc1c[nH]c2ccccc12)Nc1ncnc2[nH]ccc12 (stereo not drawn) [AVI-3650]
Average % competition [1, 14]: 71%
inhibition at 200 µM [1, 7]: 71%
PanDDA run, TFA/DMSO background map: 1-BDC ([2]; crystal soak 10 mM): 0.11
PanDDA run, TFA/DMSO background map: Hit ([2]; crystal soak 10 mM): TRUE
Number of isomers bound [2, 10]: 2
Isomers modeled [2, 13]: R,S

CC(C)(C)[C@@H]1CCN(c2ncnc3[nH]ccc23)[C@H](CO)C1 [AVI-3722]
inhibition at 200 µM [1, 6]: 22%
inhibition at 200 µM [1, 7]: 22%
Number of isomers bound [2, 10]: 1

OCC(Cc1cccs1)Nc1ncnc2[nH]ccc12 (stereo not drawn) [AVI-3711]
Average % competition [1, 14]: 63%
inhibition at 200 µM [1, 7]: 63%
PanDDA run, TFA/DMSO background map: 1-BDC ([2]; crystal soak 10 mM): 0.16
PanDDA run, TFA/DMSO background map: Hit ([2]; crystal soak 10 mM): TRUE
Number of isomers bound [2, 10]: 1

CN(C)CC(CO)Nc1ncnc2[nH]ccc12 (stereo not drawn) [AVI-3671]
Average % competition [1, 14]: <10%
inhibition at 200 µM [1, 7]: < 10%
PanDDA run, TFA/DMSO background map: 1-BDC ([2]; crystal soak 10 mM): 0.13
PanDDA run, TFA/DMSO background map: Hit ([2]; crystal soak 10 mM): TRUE
Number of isomers bound [2, 10]: 1

Nc1nnc(SCCn2c(=O)oc3ccccc32)s1 [AVI-296]
Number of isomers bound [2]: 1

Cc1c[nH]c2ncnc(NCC3(O)CCC(O)CC3)c12 (stereo not drawn) [AVI-4329]
Isomers modeled [2, 12]: rr,rr

Cc1nn(C)c2sc(C(=O)N3CC(C(=O)O)c4ccccc43)cc12 (stereo not drawn) [AVI-327]
Average % competition [1]: 0%

O[C@H]1COC[C@@H]1Nc1ncnc2[nH]ccc12 [AVI-1444, (3R,4S)-4-((7H-pyrrolo[2,3-d]pyrimidin-4-yl)amino)tetrahydrofuran-3-ol]
Number of isomers bound [2, 10]: 1

Nc1cc(N2CCC3CCCCC3C2)ncn1 (stereo not drawn) [AVI-339]
IC50 ([1]; dose-response, read-out: IC50): > 1000 µM
Average % competition [1, 15]: <10%

OC1(CNc2ncnc3[nH]ccc23)CC2CCC1CC2 (stereo not drawn) [AVI-4320]
Ki [1, 4]: 77 µM
Ligand efficiency (binding enery per heavy atom) [1, 4]: 0.28
IC50 [1, 11]: 83 µM

CCOc1ccc(-c2nc(CC(=O)N3CCn4cccc4C3C)cs2)cc1 (stereo not drawn) [AVI-325]
Average % competition [1]: 0%

OC1(CNc2ncnc3[nH]ccc23)COC2CC1C2 (stereo not drawn) [AVI-4313]
Ki [1, 4]: 120 µM
Ligand efficiency (binding enery per heavy atom) [1, 4]: 0.29
IC50 [1, 11]: 130 µM

OCC1CCC2(CCOCC2)CN1c1ncnc2[nH]ccc12 (stereo not drawn) [AVI-4065]
Ki [1, 4]: 400 µM
Ligand efficiency (binding enery per heavy atom) [1, 4]: 0.21
IC50 [1, 11]: 430 µM

O=C(Nc1ccsc1C(=O)O)c1ccc2c(c1)OCO2 [AVI-316]
Number of isomers bound [2, 10]: 1

Cc1sc2ncnc(Sc3ccccc3C(=O)O)c2c1C [AVI-317]
Number of isomers bound [2, 10]: 1

CC(NC(=O)c1ccc(N)nc1Cl)C(O)c1cccc(F)c1 (stereo not drawn) [AVI-349]
Average % competition [1]: 15%

Cc1nnc2n1CCN(C(=O)CN1C(=O)CCOc3ccccc31)C2 [AVI-302]
Average % competition [1]: 0%

Cc1ccc(N2CCN(c3ncnc(-c4ccccc4)n3)CC2=O)cc1 [AVI-336]
Average % competition [1]: <10%

COC1CCCN(S(=O)(=O)c2cc(Cl)cnc2N)C1 (stereo not drawn) [AVI-290]
binding by crystal soaking ([2]; P43 crystal form): failed to observe binding

CC(C)C1CCCN1c1ncnc2[nH]ccc12 (stereo not drawn) [AVI-5216]
inhibition at 200 µM [1, 6]: 35%
inhibition at 200 µM [1, 7]: 35%

OCC1(Nc2ncnc3[nH]ccc23)COC1 [AVI-5649]
Average % competition [1, 14]: <10%
inhibition at 200 µM [1, 7]: < 10%

Cc1ncc(CN(C)C(=O)c2cccc(N)c2F)s1 [AVI-293]
IC50 ([1]; dose-response, read-out: IC50): > 1000 µM
Average % competition [1, 15]: 14%

Nc1ncc(Cl)cc1S(=O)(=O)N1CCCC(O)C1 (stereo not drawn) [AVI-295]
binding by crystal soaking ([2]; P43 crystal form): failed to observe binding

OCC1CC=CCN1c1ncnc2[nH]ccc12 (stereo not drawn) [AVI-6002]
Ki [1, 4]: 48 µM
Ligand efficiency (binding enery per heavy atom) [1, 4]: 0.35
IC50 [1, 11]: 52 µM

CCCC1CCCC1C(=O)N[C@H]1CCc2nc(N)sc2C1 (stereo partly drawn) [AVI-298]
Average % competition [1]: <10%

O=C(O)c1ccc2c(c1)C(NC(=O)C1CCn3ncnc3C1)CCC2 (stereo not drawn) [AVI-333]
Average % competition [1]: 21%

Cc1nc(N)ncc1C(=O)NCC(O)Cc1ccc(Cl)cc1 (stereo not drawn) [AVI-343]
Average % competition [1]: <10%

CC1CCCC(O)(CNc2ncnc3[nH]ccc23)C1 (stereo not drawn) [AVI-4307]
Ki [1, 4]: 37 µM
Ligand efficiency (binding enery per heavy atom) [1, 4]: 0.32
IC50 [1, 11]: 40 µM

O=C(O)C(F)(F)F.OCC(Nc1ncnc2[nH]ccc12)C1CCCO1 (stereo not drawn) [AVI-3645]
Average % competition [1, 14]: 54%
inhibition at 200 µM [1, 7]: 54%

CC1c2ccsc2CCN1C(=O)Cc1csc(-c2ccccc2)n1 (stereo not drawn) [AVI-287]
Average % competition [1]: 0%
